Test results reported in paper PMC7838189, “Natural podophyllotoxin analog 4DPG attenuates EMT and colorectal cancer progression via activation of checkpoint kinase 2” (Cell Death Discovery, 2021).

Key:
Format in all cases: cell-based
[1] = system: HCT-116/5-FU-R cells; test: Western blotting of Chk2 and EMT markers after 4DPG; details: 48 h
Source text: (§1) 4DPG, a podophyllotoxin class of natural product anticancer compound (Supplementary Fig. S2A) has been recently described by our research group for its potent antitumor and anti-metastatic properties against aggressive cancers[31],[32]. Further, 4DPG augments phosphorylation and activation of Chk2 (Thr68) leading to suppression of EMT and invasiveness of p53-defective cancer cells. To investigate the effect of 4DPG on phosphorylation and expression levels of Chk2 in HCT-116/5-FU-R, SW-620/5-FU-R, and HT-29/5-FU-R cells, we treated these cells for 48 h with increasing concentrations of the compound, and whole-cell lysates were subjected to western blotting analysis. […] To determine the effect of 4DPG on the invasion abilities of these 5-FU-R cells, we performed in situ fluorescent gelatin degradation assay following our pre-standardized protocol[31],[37]. In physiological conditions, this assay mimics the extracellular matrix degradation by aggressive tumor cells undergoing invasion–metastasis process.
(§2) Fig. 2 4DPG activates Chk2 and attenuates EMT in 5-FU-R CRC cells. A Western blotting analysis results portraying protein expression of p-Chk2 (Thr68) and Chk2 in HCT-116/5-FU-R and SW-620/5-FU-R cells in response to increasing concentrations of 4DPG, treated for 48 h. β-Actin expression was considered as endogenous loading control. B Densitometry analysis showing relative protein expression of western blot bands presented above. n = 3, error bars: mean ± SD; ***P < 0.001. C Western blots depicting protein expression of EMT markers in HCT-116/5-FU-R and SW-620/5-FU-R cells in response to increasing concentrations of 4DPG, treated for 48 h. β-Actin expression was considered as endogenous loading control. […] E Immunocytochemistry results displaying the protein expression levels of Vimentin in HCT-116/5-FU-R and SW-620/5-FU-R cells, treated with vehicle and/or 4DPG (300 nM) for 48 h. Scale bars: 50 µm. F In situ fluorescent gelatin degradation assay results showing the invadopodia/footprints of invaded SW-620/5-FU-R cells treated with vehicle and/or 4DPG at the indicated concentration for 48 h. Blue stains over the green background display DAPI staining of nuclei of cells. G Quantification of the area of degradation through Image J software. n = 3, error bars, mean ± SD; ***P < 0.001.
(§3) We adhered to the previously published protocol for western blotting. To sum up, cells were exposed to the respective treatments (mentioned in figure legends). Post-treatment, cells were lysed with cell lysis buffer, and cell lysates were collected after centrifugation. Bradford assay was performed to quantify the protein concentration. Equal amount of protein was taken from each sample to carry out the western blot analysis. SDS-PAGE was employed to separate the proteins that were later transferred onto PVDF membranes (Millipore, Billerica, MA). Next, the membranes were blocked with 5% skim milk and subsequently incubated with the specific primary antibodies (1:1000 dilution), either for 3 h at room temperature or overnight at 4 °C. Later, the blots were washed thoroughly with TBST and probed with the respective secondary antibodies (1:2000 dilution) coupled with horseradish peroxidase for 1 h. Following thorough washing, the membranes were visualized using enhanced chemiluminescence reagent (Millipore) and captured onto Biomax light film (The Eastman Kodak Co., Rochester, NY).

[2] = system: SW-620/5-FU-R cells; test: as above; details: 48 h
Source text: as §1, §2, §3

[3] = system: RBCs; test: In vitro hemolysis assay; details: 20 µg/mL (highest tested concentration), 1 h incubation
Description: Solubility and distribution coefficient are among the major physicochemical properties of a drug that greatly determine its absorption in physiological compartments. […] The distribution coefficient (logD, pH 7.4) of 4DPG was determined to be 0.815 ± 0.19, which indicates the slightly lipophilic nature of the molecule. For administration to animals, the appropriate quantity of 4DPG was formulated in the pre-calculated volume of saline with the help of a solubilizer (Tween-80). Next, to assess the hemocompatibility of 4DPG and establish if the compound could be considered safe for intravenous (i.v.) administration, we performed in vitro hemolysis assay by incubating the RBCs with increasing concentrations of the molecule.
The distribution coefficient, solubility, and hemocompatibility of 4DPG was determined adopting our previously described protocol[37],[40]. For hemolysis assay, increasing concentrations (5, 10, and 20 µg/mL) of 4DPG were employed. Distilled water (DW) and PBS were considered as […].
Supplementary Figure S4. Hemocompatibility and exposure of 4DPG. (A) Representative images of RBC suspension incubated with distilled water (negative control), PBS (positive control), and increasing concentrations of 4DPG for 1 h. (B) Quantification of hemolysis in above treatment conditions by measuring the optical density at 540 nm. […]

[4] = increasing concentrations, immunoblot

For `COc1cc([C@@H]2c3cc4c(cc3C[C@H]3COC(=O)[C@@H]32)OCO4)cc(OC)c1O[C@@H]1O[C@H](CO)[C@@H](O)[C@H](O)[C@H]1O` [4DPG, 4′-demethyl-deoxypodophyllotoxin glucoside], the “increase in p-Chk2 (Thr68) level” value ([1]; 300 nM (sub-toxic), vs vehicle) was 12 fold, the “expression of Chk2 (total)” value ([1]; vs vehicle) was “did not alter significantly” and the “amplification of E-cadherin” value ([1]; increasing concentrations) was ≤ 12.8 fold. The “amplification of TIMP-1” value ([1]; increasing concentrations) was “up to 12.5 fold”, the “p-Vimentin (ser38), Vimentin, Twist1 and MMP-2 expression” value [1, 4] was “remarkable downregulation” and the “increase in p-Chk2 (Thr68) level” value ([2]; 300 nM (sub-toxic), vs vehicle) was 11.2 fold. For the same compound, the “expression of Chk2 (total)” value ([2]; vs vehicle) was “did not alter significantly”, the “amplification of E-cadherin” value ([2]; increasing concentrations) was ≤ 10.2 fold and the “amplification of TIMP-1” value ([2]; increasing concentrations) was ≤ 7.2 fold. For the same compound, the “p-Vimentin (ser38), Vimentin, Twist1 and MMP-2 expression” value [2, 4] was “remarkable downregulation” and the hemolysis [3] was 5.8%.
